The text below walks through data of publication PMC5651845, “A New Generation of Arachidonic Acid Analogues as Potential Neurological Agent Targeting Cytosolic Phospholipase A2” (Scientific Reports, 2017).

The term Papp denotes the rate of passage across a membrane or cell layer, normalised by area and donor concentration. Lower therefore signals slow passage. A word on the solubility: it is the dissolved amount per volume that the medium holds.

For one data set, the system named is BV-2 cells. Briefly: MTS cell proliferation assay on BV-2 cells. Type of data set: cell-based, murine. The conditions noted are these: 10 μM, 48 h and 72 h, vs vehicle control. On the procedure:
(§1) To explore whether the inhibitors are cytotoxic, MTS assay were conducted on BV-2 cells, a murine microglial cell line derived from post-natal mouse cerebella, and HEK293T cells that are derived from human embryonic kidney. Both cell types were treated with 10 μM of 1a, 2g and 2i for 48 h and 72 h (Fig. 3A,B). Dimethyl sulfoxide (DMSO) vehicle control was also included as the compounds were dissolved in DMSO.
(§2) Cells were plated on a 96-wells plate and grown for 24 h to a density of 8000 cells per well for both HEK293T and BV-2 cells. Cells were cultured at 37 °C under a 5% CO2 environment in 100 μL of culture medium. Thereafter, the compound of interest dissolved in culture medium at a concentration of 10 μM was replaced into each well. DMSO was added as vehicle in the control group. 3 biological replicates were performed. The plates were then incubated at 37 °C with 5% CO2 for 48 h and 72 h. At each individual time point, 20 μL of CellTiter 96® AQueous One Solution (MTS reagent) was added into each well and re-incubated at 37 °C with 5% CO2 without light for 3 h. Colorimetric readings were taken using a Varioskan plate reader at 490 nm and analyzed. Three independent biological repeats with four technical replicates were performed.
A general note: Tetrazolium dyes change colour on reduction, which living cells bring about.

Another data set relates to HEK293T cells. Kind of data set: MTS cell proliferation assay on HEK293T cells. It counts as cell-based, human. The conditions noted are these: 10 μM, 48 h and 72 h, vs vehicle control. On the procedure:
as §1, §2

In data set [1] the target is T1, sPLA2, human recombinant type V (Homo sapiens, UniProt P39877).
T1 construct: purchased Cayman Chemical 10009563
T1 sequence (P39877 21-138): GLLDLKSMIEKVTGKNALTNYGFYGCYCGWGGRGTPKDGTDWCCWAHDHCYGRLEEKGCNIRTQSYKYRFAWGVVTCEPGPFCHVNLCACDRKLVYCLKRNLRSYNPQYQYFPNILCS
Kind of data set: EnzChek phospholipase A2 fluorogenic assay (selectivity) with sPLA2. It counts as biochemical. The conditions noted are these: 10 μM, relative to DMSO control. On the procedure:
To further explore their selectivity towards cPLA2, 10 μM of 2g and 2i were evaluated for their inhibition against recombinant sPLA2 using the fluorogenic PLA2 assay (Fig. 3C).
The assay was conducted as described above. Instead of adding cPLA2, it was replaced by sPLA2. 48 μL of 1X phospholipase A2 reaction buffer was added into each well of a 96-wells plate. This was followed by addition of 1 μL of sPLA2, human recombinant type V (10009563, Cayman Chemical) and 1 μL of 1 mM of the respective compound or thioetheramide-PC (62750, Cayman Chemical) dissolved in DMSO. The final concentration of the test compound achieved is 10 μM. The reaction was initiated by adding 50 μL of the substrate solution and incubating at room temperature for 1 h. Fluorescence was measured using a Varioskan plate reader by exciting at 485 nm, while fluorescence emission was detected at 515 nm. Positive control was performed when 1 μL of test compound was replaced by vehicle DMSO. % activity was expressed as the mean value of duplicate wells from four experiments. % activity was calculated by the following formula:2 %activity=fluorescenceoftestedwell−background/fluorescenceofpostivecontrol−background

Data set [2] can be described thus: PAMPA with porcine brain lipids (BBB permeation). The conditions noted are these: pig, pH 7.4. As to the method: Thus to explore whether 2i is able to penetrate into the brain, we used PAMPA with porcine brain lipids as the lipid barrier. […] A minimum Pe of […] × 10^−6 cm/s has been cited as the threshold for permeability across the blood brain barrier.
The Parallel Artificial Membrane Permeability Assay (PAMPA) was used to determine the effective permeability (Pe) of 2i. The method reported by Di et al.[53] was followed with modifications. Determinations were carried out on MultiScreen-IP PAMPA assay (donor) plates (MAIPNTR10) and MultiScreen Receiver Plates (MATRNPS50) from Millipore Corporation (USA) with porcine polar brain lipids (Avanti Polar Lipids Inc, Alabaster, AL) as the lipid barrier.
An aliquot (5 µL) of 2% porcine brain lipids in dodecane (ReagentPlus®, Sigma Aldrich, USA) was dispensed into the donor well. A stock solution (5 mM) of 2i prepared in DMSO was diluted with 1x phosphate buffer (PBS, pH 7.4) to give a 50 µM solution. An aliquot (300 µL) of the solution was dispensed into the donor well and an equal volume of buffer (1xPBS with 1% DMSO) was added to the corresponding acceptor well. The donor and acceptor plates were assembled, the unit was placed in a humidified box and gently agitated on a mini shaker at room temperature (25 °C) for 16 h. After this time, aliquots (200 µL) were withdrawn from the donor and acceptor wells, diluted separately to 1 mL with PBS, and quantified at λmax of 290 nm on a Shimadzu UV-1800 Spectrophotometer.
300 µL aliquots of stock solutions (500 µM, 1xPBS, 0.1% DMSO) were dispensed to donor wells as described earlier. Quantification was by UV at λmax of 272 nm (caffeine), 284 nm (carbamazepine), 330 nm (quinidine), 280 nm (dopamine) and 288 nm (propanolol). […] Pe was obtained from (3):3 Pe=−2.303×{VAVD/[(VA+VD)×A×t]}×log{1−[(VA+VD)/(VD.S)]×CA(t)/CD(0)} where VA and VD are the volumes of acceptor (cm^3) and donor (cm^3) wells respectively, A is the area of the surface area of the membrane (0.24 cm^2), t is the permeation time (s). The Pe of each compound was obtained from at least 3 separate experiments using 2 different stock solutions. For each independent determination, triplicates (3 wells) were run for each compound.
For orientation: The PAMPA barrier holds no transporters, so it reflects passive diffusion.

Data set [3] is described as follows: Aqueous solubility (Multiscreen Solubility filter plates). Type of data set: physicochemical. The conditions noted are these: aqueous buffer, kinetic from dmso stock; pH 7.4, 24 h, 25 °C. As to the method:
Solubility determinations were carried out on Multiscreen® Solubility filter plates (Millipore-MSSLBPC10) from Millipore Corporation (MA, USA) following the protocol (PC2445EN00) from the manufacturer.

Take `CCCCC/C=C\C/C=C\C/C=C\C/C=C\CCCCC(=O)Nc1cccc(C(=O)O)c1` [2i]: in the data set on BV-2 cells, the “cytotoxicity (MTS) on BV-2 cells” value is “no significant toxic effects”. In the data set with HEK293T cells, the “cytotoxicity (MTS) on HEK293T cells” value was “no significant toxic effects”. Besides, the sPLA2 activity result in data set [1] is recorded as “did not provide a significant change in sPLA2 activity”. In data set [2], the Papp at 16 h, 50 µM was found to be 12.3 ± 1.46 ×10⁻⁶ cm/s. For the same molecule, the solubility at 24 h in data set [3] is more than 100 µM.
